The values that follow are results of earlier work, collected in patent publication US20050101565A1, “Pharmaceutical compositions and methods for treating, preventing, and managing cholesterol, dyslipidemia, and related disorders” (Esperion Therapeutics, Inc., priority 2002, published 2005).

The conditions of data set [1]: many patients, metformin therapy.
For data set [2] the following is noted: patients on metformin therapy.

As for `CN(C)C(=N)N=C(N)N` [metformin], in data set [1], the weight reduction is 5-10%. Further, the “incidence of lactic acidosis” value in data set [2] is 3 cases per 100,000 patient/year of therapy.
